The results in this text go back to ChEMBL document CHEMBL3879904, “Selective sphingosine 1 phosphate receptor modulators and methods of chiral synthesis” (2013).

Data set [1] concerns the target Sphingosine 1-phosphate receptor 1 (Homo sapiens, UniProt P21453). In words: Agonist activity at human S1P1 expressed in CRE-bla CHOK1 cells assessed as inhibition of forskolin-induced cAMP formation preincubated for 4 hrs followed by FRET-based beta-lactamase fluorescent substrate addition measured after 2 hrs. Type of data set: functional, cell-based, CHO-K1. (Cyclic AMP is a second messenger, typically raised through Gs and lowered through Gi signalling.)

For a further data set, the system named is Rattus norvegicus. In words: Antiinflammatory activity in Sprague-Dawley rat assessed as dose required to produce 50% lymphopenia administered orally via gavage for 3 to 5 days measured 24 hrs post last dose. The data set is classed as functional.
Data set [2] in a line: Toxicity in Sprague-Dawley rat assessed as dose required to produce 10% increase in lung to terminal body weight ratio administered orally via gavage for 5 to 14 days measured 24 hrs post last dose. To be noted: in vivo, po.
Data set [3] is described as follows: Therapeutic index, ratio of dose required to produce 10% increase in lung to terminal body weight ratio administered for 14 days to dose required to produce 50% lymphopenia in Sprague-Dawley rat. To be noted: in vivo, read-out: TI.
For data set [4], the system named is Mus musculus. In words: Antiinflammatory activity in Influenza A virus (A/WSN/33) infected C57Bl/6 mouse model assessed as suppression of inflammatory cell infiltration into lungs at 0.5 mg/kg administered intratracheally 1 hr post viral infection measured after 48 hrs relative to control. The data set is classed as functional. To be noted: C57Bl/6, inhaled or nasal.

For data set [5], the system named is Mus musculus. Briefly: Antiinflammatory activity in C57BL6 mouse assessed as induction of lymphopenia by measuring CD4 or CD8-positive T cell levels at 1 mg/kg, po administered via gavage measured over 24 hrs by FACS analysis relative to control. The data set is classed as functional. On the technique in general: In flow cytometry, cells or beads pass a laser one at a time.

The nature of data set [6]: Oral bioavailability in Sprague-Dawley rat at 2 mg/kg administered via gavage by HPLC-LC/MS/MS method. Type of data set: ADME, organism-based. To be noted: in vivo.

Chain of Sphingosine 1-phosphate receptor 1 (P21453 whole entry): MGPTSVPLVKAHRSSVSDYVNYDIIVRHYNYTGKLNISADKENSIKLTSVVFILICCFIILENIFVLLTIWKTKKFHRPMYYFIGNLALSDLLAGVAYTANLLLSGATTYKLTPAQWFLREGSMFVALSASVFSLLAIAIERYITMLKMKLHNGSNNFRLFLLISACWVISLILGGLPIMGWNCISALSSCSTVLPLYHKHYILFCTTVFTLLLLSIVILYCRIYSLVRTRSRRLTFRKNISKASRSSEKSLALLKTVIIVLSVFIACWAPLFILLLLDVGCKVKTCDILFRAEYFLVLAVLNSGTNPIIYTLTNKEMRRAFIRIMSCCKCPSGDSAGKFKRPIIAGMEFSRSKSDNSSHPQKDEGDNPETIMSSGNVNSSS

Broadly, the EC50 is the concentration at which the effect is half-maximal. Take `CC(C)Oc1ccc(-c2nc(-c3cccc4c3CC[C@H]4NC(=O)c3ccc(Br)cc3)no2)cc1C#N`: in data set [1], the EC50 is more than 5 nM. Regarding `CC(C)Oc1ccc(-c2nc(-c3cccc4c3CC[C@@H]4NC(=O)N3CC(O)C3)no2)cc1C#N`, the Activity was determined as 2 mg/kg in the data set with Rattus norvegicus and 11.3 mg/kg in data set [2]. For the molecule `CC(C)Oc1ccc(-c2nc(-c3cccc4c3CC[C@H]4N)no2)cc1C#N.Cl`, the Activity in the data set on Rattus norvegicus was found to be 0.1 mg/kg; in data set [2], 0.2 mg/kg. Besides, the selectivity ratio at 336 h in data set [3] was determined as 2. `CC(C)Oc1ccc(-c2nc(-c3cccc4c3CC[C@@H]4NCC(=O)N(C)C)no2)cc1C#N`: the Activity (with Rattus norvegicus; in data set [2]) was 0.3 mg/kg throughout. Regarding `CC(C)Oc1ccc(-c2nc(-c3cccc4c3CC[C@@H]4NCCO)no2)cc1C#N` [OZANIMOD], the Activity came out at 0.15 mg/kg with Rattus norvegicus and 2.7 mg/kg in data set [2]. Regarding `CC(C)Oc1ccc(-c2nc(-c3cccc4c3CC[C@@H]4NS(=O)(=O)CCO)no2)cc1C#N`, the Activity is 0.5 mg/kg with Rattus norvegicus and 5 mg/kg in data set [2]. With `CC(C)Oc1ccc(-c2nc(-c3cccc4c3CC[C@H]4NC(=O)N3CC(O)C3)no2)cc1C#N`, the Activity in the data set on Rattus norvegicus was found to be 0.9 mg/kg; in data set [2], 21.3 mg/kg. On the same counts, the results for `CC(C)Oc1ccc(-c2nc(-c3cccc4c3CC[C@@H]4N)no2)cc1C#N` are 0.1 mg/kg and 2 mg/kg.

Consider `CC(C)Oc1ccc(-c2nc(-c3cccc4c3CC[C@H]4NCC(=O)N(C)C)no2)cc1C#N.Cl`, for which the Activity was 0.4 mg/kg in the data set with Rattus norvegicus and 5.5 mg/kg in data set [2]. As for `CC(C)Oc1ccc(-c2nc(-c3cccc4c3CC[C@H]4NCC(=O)N3CCOCC3)no2)cc1C#N`, the 50% effective concentration (EC50) in data set [1] fell in the range of 0.05 to 0.5 nM. The inhibition in vivo is how much of the control response was suppressed. For the molecule `CC(C)Oc1ccc(-c2nc(-c3cccc4c3CC[C@H]4NCCO)no2)cc1C#N`, the Activity in the data set with Rattus norvegicus stood at 0.15 mg/kg; in data set [2], 2.8 mg/kg. Besides, the inhibition in vivo at 0.5 mg/kg in the data set with Mus musculus [4] is 40%. In the case of `CC(C)Oc1ccc(-c2nc(-c3cccc4c3CC[C@H]4NS(=O)(=O)CCO)no2)cc1C#N`, the Activity is 0.07 mg/kg in the data set with Rattus norvegicus and 1.1 mg/kg in data set [2]. The term bioavailability denotes the share of a dose that reaches the circulation, judged against a reference dose that is usually intravenous. Higher therefore signals much systemic uptake. Consider `CCOc1ccc(-c2nc(-c3cccc4c3CCC4NCCO)no2)cc1OCC` (racemic), for which the AUEC in the data set on Mus musculus [5] came to 116%. The same molecule showed a bioavailability in data set [6] of 21%. Take `CC(C)Oc1ccc(-c2nc(-c3cccc4c3CC[C@@H]4NC(=O)N(C)C)no2)cc1C#N`: the concentration giving a half-maximal response (EC50) in data set [1] was 0.05 to 0.5 nM.

Regarding `COCCS(=O)(=O)N[C@H]1CCc2c(-c3noc(-c4ccc(OC(C)C)c(C#N)c4)n3)cccc21`, the figures for the Activity (in the data set with Rattus norvegicus; in data set [2]) were 0.25 mg/kg and 5 mg/kg, respectively. Regarding `COCCS(=O)(=O)N[C@@H]1CCc2c(-c3noc(-c4ccc(OC(C)C)c(C#N)c4)n3)cccc21`, the Activity with Rattus norvegicus worked out at 0.07 mg/kg; in data set [2] it was 2.1 mg/kg.
